Data set [1] addresses Receptor tyrosine-protein kinase erbB-2 (Homo sapiens, UniProt P04626).
Description: Inhibition of ErbB2 kinase
In data set [2] the target is Epidermal growth factor receptor (Homo sapiens, UniProt P00533). As to the kind of experiment: Inhibition of EGFR kinase.
Data set [3] deals with BT-474. As to the kind of experiment: Antiproliferative activity against human BT474 cells overexpressing ErbB2 after 3 days by methylene blue staining. Particulars: BT-474, 72 h.
In data set [4] the test system is HN5. As to the kind of experiment: Antiproliferative activity against human HN5 cells overexpressing EGFR after 3 days by methylene blue staining. Conditions: HN5, 72 h.
Data set [5] can be described thus: Antiproliferative activity against human foreskin fibroblast after 3 days by methylene blue staining. Conditions: 72 h.
In data set [6] the test system is Mus musculus. As to the kind of experiment: Dose normalized AUC in po dosed mouse. The data set is classed as ADME, organism-based. Particulars: in vivo.

Chain of Epidermal growth factor receptor (P00533 whole entry): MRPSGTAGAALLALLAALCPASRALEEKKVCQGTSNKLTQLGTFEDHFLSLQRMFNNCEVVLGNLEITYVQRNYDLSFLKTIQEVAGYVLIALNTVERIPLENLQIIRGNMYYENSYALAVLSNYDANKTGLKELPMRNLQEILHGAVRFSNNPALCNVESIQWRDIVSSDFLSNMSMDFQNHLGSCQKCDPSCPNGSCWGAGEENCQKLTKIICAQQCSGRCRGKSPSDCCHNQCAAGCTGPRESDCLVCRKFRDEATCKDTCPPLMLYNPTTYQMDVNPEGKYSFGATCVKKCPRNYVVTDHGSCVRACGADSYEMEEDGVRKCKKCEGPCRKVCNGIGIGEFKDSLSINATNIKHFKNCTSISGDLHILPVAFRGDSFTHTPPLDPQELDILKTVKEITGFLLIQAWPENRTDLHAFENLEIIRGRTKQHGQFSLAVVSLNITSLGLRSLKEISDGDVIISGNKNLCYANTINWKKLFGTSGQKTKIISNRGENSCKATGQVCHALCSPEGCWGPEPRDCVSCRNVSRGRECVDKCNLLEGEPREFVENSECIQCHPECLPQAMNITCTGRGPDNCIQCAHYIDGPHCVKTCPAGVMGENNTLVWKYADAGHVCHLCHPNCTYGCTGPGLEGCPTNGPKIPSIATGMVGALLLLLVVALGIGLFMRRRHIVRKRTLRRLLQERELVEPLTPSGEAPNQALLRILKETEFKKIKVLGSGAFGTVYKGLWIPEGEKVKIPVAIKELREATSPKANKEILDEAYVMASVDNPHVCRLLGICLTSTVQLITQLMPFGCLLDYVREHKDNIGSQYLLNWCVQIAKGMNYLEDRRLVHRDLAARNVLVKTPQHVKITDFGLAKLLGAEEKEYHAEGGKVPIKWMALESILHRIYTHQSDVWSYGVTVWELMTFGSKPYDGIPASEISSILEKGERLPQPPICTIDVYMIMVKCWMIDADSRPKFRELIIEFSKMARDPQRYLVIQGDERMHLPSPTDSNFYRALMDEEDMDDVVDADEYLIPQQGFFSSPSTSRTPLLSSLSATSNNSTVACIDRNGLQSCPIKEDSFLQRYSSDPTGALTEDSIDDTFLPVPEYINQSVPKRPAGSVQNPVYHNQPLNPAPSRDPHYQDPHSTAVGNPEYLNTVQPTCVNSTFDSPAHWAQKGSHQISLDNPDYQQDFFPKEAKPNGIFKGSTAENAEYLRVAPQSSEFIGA
Chain of Receptor tyrosine-protein kinase erbB-2 (P04626 whole entry): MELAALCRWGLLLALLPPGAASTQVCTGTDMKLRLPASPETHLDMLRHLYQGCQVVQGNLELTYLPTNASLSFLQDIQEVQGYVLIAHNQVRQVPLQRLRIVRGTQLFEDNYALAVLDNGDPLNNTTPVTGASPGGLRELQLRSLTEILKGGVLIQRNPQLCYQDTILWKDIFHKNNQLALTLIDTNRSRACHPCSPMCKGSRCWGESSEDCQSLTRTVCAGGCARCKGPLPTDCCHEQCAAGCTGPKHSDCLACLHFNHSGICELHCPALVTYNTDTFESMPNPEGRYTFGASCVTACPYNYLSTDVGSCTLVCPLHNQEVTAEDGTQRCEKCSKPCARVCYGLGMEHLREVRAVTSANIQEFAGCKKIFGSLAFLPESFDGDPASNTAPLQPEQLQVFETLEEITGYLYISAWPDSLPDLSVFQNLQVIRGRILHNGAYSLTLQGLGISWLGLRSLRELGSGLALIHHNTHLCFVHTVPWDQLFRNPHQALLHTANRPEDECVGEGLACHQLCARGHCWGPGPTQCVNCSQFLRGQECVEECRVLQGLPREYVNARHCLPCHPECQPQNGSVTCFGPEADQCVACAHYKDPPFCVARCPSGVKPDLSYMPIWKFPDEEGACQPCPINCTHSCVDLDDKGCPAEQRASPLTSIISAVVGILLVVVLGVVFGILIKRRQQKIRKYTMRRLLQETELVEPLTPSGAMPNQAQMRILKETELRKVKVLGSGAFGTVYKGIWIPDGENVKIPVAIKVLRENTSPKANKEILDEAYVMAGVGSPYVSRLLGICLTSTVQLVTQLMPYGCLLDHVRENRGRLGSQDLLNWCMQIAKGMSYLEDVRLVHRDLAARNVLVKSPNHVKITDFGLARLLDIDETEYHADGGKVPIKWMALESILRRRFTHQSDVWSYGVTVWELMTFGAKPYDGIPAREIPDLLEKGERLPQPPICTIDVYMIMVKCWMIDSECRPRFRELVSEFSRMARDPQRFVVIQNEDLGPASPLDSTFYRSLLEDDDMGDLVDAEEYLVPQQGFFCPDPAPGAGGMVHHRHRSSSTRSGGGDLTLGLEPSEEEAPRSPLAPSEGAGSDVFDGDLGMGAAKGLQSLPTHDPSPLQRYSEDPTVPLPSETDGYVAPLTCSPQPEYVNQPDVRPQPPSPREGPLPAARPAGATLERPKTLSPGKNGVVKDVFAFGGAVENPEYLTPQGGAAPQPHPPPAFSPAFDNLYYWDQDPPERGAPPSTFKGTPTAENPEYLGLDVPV

As to `CS(=O)(=O)O[C@H]1CN[C@H](C#Cc2cc3ncnc(Nc4ccc(OCc5cccc(F)c5)c(Cl)c4)c3s2)C1`, the half-inhibitory concentration (IC50) in data set [1] is 40 nM; in data set [2], 81 nM; in data set [3], 86 nM; in data set [4], 380 nM; in data set [5], over 1000 nM.

In the case of `CCNC(=O)O[C@H]1CN[C@H](C#Cc2cc3ncnc(Nc4ccc(OCc5cccc(F)c5)c(Cl)c4)c3s2)C1` [GSK-192082A], the IC50 in data set [2] is 32 nM; in data set [3], 30 nM; in data set [4], 95 nM; in data set [5], over 1000 nM. The compound also returned an AUC in data set [6] of 61 ng·kg·h/mg/mL.

As for `CCOC(=O)N[C@H]1CN[C@H](C#Cc2cc3ncnc(Nc4ccc(OCc5cccc(F)c5)c(Cl)c4)c3s2)C1`, the IC50 in data set [1] is 78 nM; in data set [2], 60 nM; in data set [3], 40 nM; in data set [4], 113 nM; in data set [5], over 1000 nM.

For `COCCN1CCC[C@@H]1C#Cc1cc2ncnc(Nc3ccc(OCc4cccc(F)c4)c(Cl)c3)c2s1`, the figures for the IC50 in data set [2], in data set [4] and in data set [5] were 130 nM, 190 nM and over 1000 nM, respectively.

For the compound `O=C(O[C@H]1CN[C@H](C#Cc2cc3ncnc(Nc4ccc(OCc5cccc(F)c5)c(Cl)c4)c3s2)C1)N1CCOCC1` [GW869810X], the IC50 in data set [3] was 30 nM; in data set [5], over 1000 nM.

On to `CCS(=O)(=O)N[C@H]1CN[C@H](C#Cc2cc3ncnc(Nc4ccc(OCc5cccc(F)c5)c(Cl)c4)c3s2)C1`, for which the IC50 was 50 nM in data set [2], 42 nM in data set [3], 127 nM in data set [4] and over 1000 nM in data set [5].

Consider `CN(C)C(=O)O[C@H]1CN[C@H](C#Cc2cc3ncnc(Nc4ccc(OCc5cccc(F)c5)c(Cl)c4)c3s2)C1` [GSK-182497A], for which the IC50 in data set [3] was 30 nM; in data set [5], over 1000 nM.

For `O[C@H]1CN[C@H](C#Cc2cc3ncnc(Nc4ccc(OCc5cccc(F)c5)c(Cl)c4)c3s2)C1`, the half-inhibitory concentration (IC50) in data set [1] was 11 nM; in data set [3], 39 nM; in data set [5] it was over 1000 nM. In data set [6], this compound gave an AUC of 9 ng·kg·h/mg/mL.

For `CCO[C@H]1CN[C@H](C#Cc2cc3ncnc(Nc4ccc(OCc5cccc(F)c5)c(Cl)c4)c3s2)C1`, the IC50 in data set [1] was 98 nM; in data set [2] it was 115 nM; in data set [3], 45 nM; in data set [4], 99 nM; in data set [5], over 1000 nM.

As for `CCC(=O)O[C@H]1CN[C@H](C#Cc2cc3ncnc(Nc4ccc(OCc5cccc(F)c5)c(Cl)c4)c3s2)C1`, the IC50 in data set [1] is 90 nM; in data set [2], 63 nM; in data set [3] it was 18 nM; in data set [4], 52 nM; in data set [5] it was over 1000 nM.

Regarding `COC(=O)N1CCC[C@@H]1C#Cc1cc2ncnc(Nc3ccc(OCc4cccc(F)c4)c(Cl)c3)c2s1`, the half-maximal inhibitory concentration (IC50) was 120 nM in data set [1]; 140 nM in data set [2]; 1700 nM in data set [3]; 590 nM in data set [4]; over 1000 nM in data set [5].

On to `CC(=O)N1CCC[C@@H]1C#Cc1cc2ncnc(Nc3ccc(OCc4cccc(F)c4)c(Cl)c3)c2s1`, for which the half-maximal inhibitory concentration (IC50) was 38 nM in data set [1]; 58 nM in data set [2]; 670 nM in data set [3]; 37 nM in data set [4]; over 1000 nM in data set [5].

Consider `Fc1cccc(COc2ccc(Nc3ncnc4cc(C#C[C@H]5CCCN5)sc34)cc2Cl)c1`, for which the half-inhibitory concentration (IC50) in data set [3] is 94 nM; in data set [4], 238 nM; in data set [5], over 1000 nM.

With `Fc1cccc(COc2ccc(Nc3ncnc4cc(C#C[C@@H]5CCCN5)sc34)cc2Cl)c1`, the concentration for half-maximal inhibition (IC50) in data set [1] is 54 nM; in data set [2], 109 nM; in data set [3], 205 nM; in data set [4], 536 nM; in data set [5], over 1000 nM.

`CS(=O)(=O)N1CCC[C@@H]1C#Cc1cc2ncnc(Nc3ccc(OCc4cccc(F)c4)c(Cl)c3)c2s1`: the IC50 in data set [1] is 88 nM; in data set [2] it was 120 nM; in data set [3] it was 650 nM; in data set [4] it was 550 nM; in data set [5] it was over 1000 nM.

Turning to `CNC(=O)O[C@H]1CN[C@H](C#Cc2cc3ncnc(Nc4ccc(OCc5cccc(F)c5)c(Cl)c4)c3s2)C1`, the 50% inhibitory concentration (IC50) in data set [1] was 20 nM; in data set [2], 50 nM; in data set [3], 28 nM; in data set [4] it was 58 nM; in data set [5], over 1000 nM. Moreover, the AUC in data set [6] amounted to 18 ng·kg·h/mg/mL.

For `CCOC(=O)O[C@H]1CN[C@H](C#Cc2cc3ncnc(Nc4ccc(OCc5cccc(F)c5)c(Cl)c4)c3s2)C1`, the 50% inhibitory concentration (IC50) is 135 nM in data set [1]; 141 nM in data set [2]; 34 nM in data set [3]; 200 nM in data set [4]; over 1000 nM in data set [5].

The record behind these values is ChEMBL document CHEMBL1143444, “Dual EGFR/ErbB-2 inhibitors from novel pyrrolidinyl-acetylenic thieno[3,2-d]pyrimidines” (Bioorg Med Chem Lett, 2008).
